In US6906170B1 (Yeda Research and Development Co. Ltd., priority 1998, dated 2005):
No end group written: not given here.

Tested on: T cells
Experiment: Staining of actin cytoskeleton in FN-adherent activated T cells
Format: cell-based, human
Conditions: TRITC-phalloidin staining
Protocol: FIGS. 8A-8E show inhibition by pep2 of the spreading and redistribution of the actin cytoskeleton in IL-2- and PMA-activated FN-adherent T cells. […] After incubation, the intracellular actin filaments of the fixed FN-attached T cells were stained. Original magnification, =1000.
Staining of actin cytoskeleton. T cells were incubated (18 h, 37° C., 7.5% CO2, humidified atmosphere) in culture medium. […] After 1 h at 37° C., the adherent cells were fixed (3 min) with paraformaldehyde (3%) and Triton X-100 (0.5%), washed, and fixed (20 min) again with paraformaldehyde (3%). The fixed adherent cells were washed, treated with TRITC-phalloidin, and washed again. Photographs (×1000 magnification) were then taken.
Inhibition of the reorganization of the actin cytoskeleton in FN-attached activated T cells by the […](SEQ ID NO:1) peptide. The adhesion of immune cells to ECM is dependent on the sequestering of the cytoplasmic domains of integrins in focal adhesion sites, together with actin-containing microfilament bundles (Sanchez-Mateos et al., 1996). Therefore, we examined the effect of […](SEQ ID NO:1) on the morphologies of adherent T cells. […] After incubation and fixation, the actin cytoskeleton of attached T cells was stained with TRITC-conjugated phalloidin. […]

Substance	redistribution of the actin cytoskeleton in IL-2- and PMA-treated FN-adherent T cells
Ile-Val-Leu [pep1]	inhibition of the redistribution of the actin cytoskeleton
Glu-Phe-Leu-Asn-Arg-Trp-Ile-Thr (EFLNRWIT; not fully specified (C-terminus); printed as Glu-Phe-Leu-Asn-Arg-Trp-Ile-Thr) [pep2]	inhibited the redistribution of the actin skeleton
